From patent US20180148418A1, “AMIDO-SUBSTITUTED CYCLOHEXANE DERIVATIVES” (Bayer Pharma Aktiengesellschaft, priority 2015, published 2018)

How the values were obtained:
[1] = tested on: wildtype Wnt signaling cascade; test: HEK293 TOP assay (Super TopFlash luciferase reporter, Wnt-3a stimulated); assay type: cell-based; conditions: Homo sapiens, HEK293, 16 h, HEK293 TOP reporter cells, Wnt3a at EC50, 16 hours
Summary of the method: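 HEK293 cells stably carrying Super TopFlash (TOP) run in parallel with FOP cells, 10000/well plated 24 h ahead, stimulated with recombinant human Wnt-3a. Compounds tested 50 μM to 15 nM in 3.16-fold steps in CAFTY buffer pH 7.4 with 2 mM Ca^2+ and 0.01% BSA; luciferase read-out.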

[2] = biological target: T1, TNKS2 (Homo sapiens, UniProt Q9H2K2); test: TNKS2 Assay B (auto-parsylation, [3H]-NAD+ SPA); assay type: biochemical; conditions: 6 nM TNKS2, auto-parsylation, over night at room temperature
T1 construct: purchased BPS Bioscience, San Diego, USA 80572 (TNKS2 Histone Ribosylation Assay Kit)
T1 sequence (Q9H2K2 1-1166): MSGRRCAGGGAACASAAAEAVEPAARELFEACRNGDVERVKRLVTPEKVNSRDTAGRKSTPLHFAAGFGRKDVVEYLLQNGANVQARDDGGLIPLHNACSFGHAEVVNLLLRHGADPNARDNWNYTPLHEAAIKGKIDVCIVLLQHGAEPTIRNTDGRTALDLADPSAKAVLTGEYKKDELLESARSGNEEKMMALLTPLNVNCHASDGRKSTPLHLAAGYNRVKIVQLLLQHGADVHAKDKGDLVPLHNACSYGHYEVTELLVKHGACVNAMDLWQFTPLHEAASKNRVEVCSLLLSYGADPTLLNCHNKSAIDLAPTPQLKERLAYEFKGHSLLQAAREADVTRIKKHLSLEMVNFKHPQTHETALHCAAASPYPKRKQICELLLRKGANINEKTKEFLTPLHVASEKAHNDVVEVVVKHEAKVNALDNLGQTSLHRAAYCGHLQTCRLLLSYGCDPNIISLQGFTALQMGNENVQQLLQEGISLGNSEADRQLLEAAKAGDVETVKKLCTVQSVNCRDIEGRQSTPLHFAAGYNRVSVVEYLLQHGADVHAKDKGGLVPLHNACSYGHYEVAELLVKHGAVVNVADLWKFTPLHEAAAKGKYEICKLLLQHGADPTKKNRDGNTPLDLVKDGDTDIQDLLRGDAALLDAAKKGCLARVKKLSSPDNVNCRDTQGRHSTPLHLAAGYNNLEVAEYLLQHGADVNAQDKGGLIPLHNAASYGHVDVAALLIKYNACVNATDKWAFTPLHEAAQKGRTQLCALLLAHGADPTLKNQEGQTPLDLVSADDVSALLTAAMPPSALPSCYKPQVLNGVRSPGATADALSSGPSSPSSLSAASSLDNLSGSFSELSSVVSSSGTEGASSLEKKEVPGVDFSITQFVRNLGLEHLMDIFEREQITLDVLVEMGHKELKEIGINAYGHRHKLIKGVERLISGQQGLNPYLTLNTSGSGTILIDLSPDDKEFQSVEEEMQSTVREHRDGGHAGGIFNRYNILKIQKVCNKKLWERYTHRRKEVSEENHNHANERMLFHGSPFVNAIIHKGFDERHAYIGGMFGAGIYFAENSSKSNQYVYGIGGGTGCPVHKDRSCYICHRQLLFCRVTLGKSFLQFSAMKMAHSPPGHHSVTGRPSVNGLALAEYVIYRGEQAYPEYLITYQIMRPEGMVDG

Row | Structure (SMILES) | IC50 [1] | IC50 [2]
1 | COC[C@@H](C)NC(=O)c1nc[nH]c1C(=O)N[C@H]1CC[C@H](C(=O)Nc2ccc(F)cc2Cl)CC1 [Example 84, N^5-{trans-4-[(2-chloro-4-fluorophenyl)carbamoyl]cyclohexyl}-N^4-[(2R)-1-methoxypropan-2-yl]-1H-imidazole-4,5-dicarboxamide] | 230 nM | 230 nM
2 | O=C(NCC1CCCO1)c1nc[nH]c1C(=O)N[C@H]1CC[C@H](C(=O)Nc2ccc(F)cc2Cl)CC1 (stereo partly drawn) [Example 78, N^5-{trans-4-[(2-chloro-4-fluorophenyl)carbamoyl]cyclohexyl}-N^4-(tetrahydrofuran-2-ylmethyl)-1H-imidazole-4,5-dicarboxamide] | 130 nM | 89 nM
3 | CNC(=O)c1[nH]cnc1C(=O)N[C@H]1CC[C@H](C(=O)Nc2ccc(F)cc2Cl)CC1(F)F (single isomer, unassigned) [Example 33, N^4-{(trans)-4-[(2-chloro-4-fluorophenyl)carbamoyl]-2,2-difluorocyclohexyl}-N^5-methyl-1H-imidazole-4,5-dicarboxamide] | 700 nM | 380 nM
4 | COCC(C)NC(=O)c1nc[nH]c1C(=O)N[C@H]1CC[C@H](C(=O)Nc2c(F)cc(F)cc2Cl)CC1 (stereo partly drawn) [Example 65, N^5-{trans-4-[(2-chloro-4,6-difluorophenyl)carbamoyl]cyclohexyl}-N^4-(1-methoxypropan-2-yl)-1H-imidazole-4,5-dicarboxamide] | 230 nM | 190 nM
5 | CNC(=O)c1[nH]cnc1C(=O)N[C@@H]1CC[C@@H](C(=O)Nc2ccc(F)cc2Cl)C[C@H]1OC (racemic) [Example 35, N^4-{(1α,2β,4β)-4-[(2-chloro-4-fluorophenyl)carbamoyl]-2-methoxycyclohexyl}-N^5-methyl-1H-imidazole-4,5-dicarboxamide] | 17000 nM | > 10000 nM
6 | O=C(NCC1CCCO1)c1nc[nH]c1C(=O)N[C@H]1CC[C@H](C(=O)Nc2c(F)cc(F)cc2Cl)CC1 (stereo partly drawn) [Example 69, N^5-{trans-4-[(2-chloro-4,6-difluorophenyl)carbamoyl]cyclohexyl}-N^4-(tetrahydrofuran-2-ylmethyl)-1H-imidazole-4,5-dicarboxamide] | 170 nM | 57 nM
7 | COC(C)CNC(=O)c1nc[nH]c1C(=O)N[C@H]1CC[C@H](C(=O)Nc2c(F)cc(F)cc2Cl)CC1 (stereo partly drawn) [Example 68, N^5-{trans-4-[(2-chloro-4,6-difluorophenyl)carbamoyl]cyclohexyl}-N^4-(2-methoxypropyl)-1H-imidazole-4,5-dicarboxamide] | 120 nM | 79 nM
8 | O=C(N[C@H]1CC[C@H](C(=O)Nc2ccc(F)cc2Cl)CC1)c1[nH]cnc1C(=O)N1CC2(CCS2(=O)=O)C1 [Example 22, N-{trans-4-[(2-chloro-4-fluorophenyl)carbamoyl]cyclohexyl}-4-[(1,1-dioxido-1-thia-6-azaspiro[3.3]hept-6-yl)carbonyl]-1H-imidazole-5-carboxamide] | 24 nM | 5.3 nM
9 | O=C(NCCC1CC1)c1nc[nH]c1C(=O)N[C@H]1CC[C@H](C(=O)Nc2ccc(F)cc2Cl)CC1 [Example 74, N^5-{trans-4-[(2-chloro-4-fluorophenyl)carbamoyl]cyclohexyl}-N^4-(2-cyclopropylethyl)-1H-imidazole-4,5-dicarboxamide] | 190 nM | 73 nM

Further lines, results first:

Row | IC50 [1] | IC50 [2] | Structure (SMILES)
10 | 4.9 nM | 2 nM | O=C(N[C@H]1CC[C@@]2(CCN(c3cc(F)c(F)cc3Cl)C2=O)CC1)c1cnc2cccnn12 [Example 298, N-[(trans)-2-(2-chloro-4,5-difluorophenyl)-1-oxo-2-azaspiro[4.5]dec-8-yl]imidazo[1,2-b]pyridazine-3-carboxamide]
11 | 100 nM | 220 nM | CC(C)(O)CNC(=O)c1nc[nH]c1C(=O)N[C@H]1CC[C@@]2(CCN(c3cccc(Cl)c3)C2=O)CC1 [Example 284, N^5-[(trans)-2-(3-chlorophenyl)-1-oxo-2-azaspiro[4.5]dec-8-yl]-N^4-(2-hydroxy-2-methylpropyl)-1H-imidazole-4,5-dicarboxamide]
12 | 12000 nM | 2000 nM | Cc1cc(C2CC2)nc2c(C(=O)N[C@H]3CC[C@H](C(=O)Nc4ccc(F)cc4Cl)CC3)cnn12 [Example 62, N-{trans-4-[(2-chloro-4-fluorophenyl)carbamoyl]cyclohexyl}-5-cyclopropyl-7-methylpyrazolo[1,5-a]pyrimidine-3-carboxamide]
13 | 25000 nM | > 10000 nM | CNC(=O)c1[nH]cnc1C(=O)NC1CCC(F)(C(=O)Nc2ccc(F)cc2Cl)CC1 (single isomer, unassigned) [Example 366, N^4-{4-[(2-chloro-4-fluorophenyl)carbamoyl]-4-fluorocyclohexyl}-N^5-methyl-1H-imidazole-4,5-dicarboxamide (single isomer)]
14 | 6.9 nM | 7.6 nM | Cc1cc(N2CC[C@]3(CC[C@@H](NC(=O)c4[nH]cnc4C(=O)NCC(F)(F)F)CC3)C2=O)c(Cl)cc1F [Example 297, N^5-[(trans)-2-(2-chloro-4-fluoro-5-methylphenyl)-1-oxo-2-azaspiro[4.5]dec-8-yl]-N^4-(2,2,2-trifluoroethyl)-1H-imidazole-4,5-dicarboxamide]
15 | 10000 nM | 1700 nM | O=C(N[C@H]1CC[C@H](C(=O)Nc2ccc(F)cc2Cl)CC1)c1cnc2ccc(O)nn12 [Example 360, N-{trans-4-[(2-chloro-4-fluorophenyl)carbamoyl]cyclohexyl}-6-hydroxyimidazo[1,2-b]pyridazine-3-carboxamide]
16 | 390 nM | 420 nM | O=C(N[C@H]1CC[C@H](C(=O)Nc2ccc(F)cc2Cl)CC1)c1cnc2ccc(Cl)nn12 [Example 47, 6-chloro-N-{trans-4-[(2-chloro-4-fluorophenyl)carbamoyl]cyclohexyl}imidazo[1,2-b]pyridazine-3-carboxamide]
17 | 150 nM | 11 nM | CN(C)c1ccc2ncc(C(=O)N[C@H]3CC[C@H](C(=O)Nc4ccc(F)cc4Cl)CC3)n2n1 [Example 52, N-{trans-4-[(2-chloro-4-fluorophenyl)carbamoyl]cyclohexyl}-6-(dimethylamino)imidazo[1,2-b]pyridazine-3-carboxamide]
18 | 140 nM | 26 nM | O=C(N[C@H]1CC[C@H](C(=O)Nc2ccc(F)cc2Cl)CC1)c1[nH]cnc1C(=O)N1CC(F)(F)C1 [Example 72, N-{trans-4-[(2-chloro-4-fluorophenyl)carbamoyl]cyclohexyl}-4-[(3,3-difluoroazetidin-1-yl)carbonyl]-1H-imidazole-5-carboxamide]
19 | 21 nM | 34 nM | Cc1cnc2c(C(=O)N[C@H]3CC[C@H](C(=O)Nc4ccc(F)cc4Cl)CC3)cnn2c1 [Example 61, N-{trans-4-[(2-chloro-4-fluorophenyl)carbamoyl]cyclohexyl}-6-methylpyrazolo[1,5-a]pyrimidine-3-carboxamide]
20 | 1300 nM | 500 nM | Nc1nn2cccnc2c1C(=O)N[C@H]1CC[C@H](C(=O)Nc2ccc(F)cc2Cl)CC1 [Example 59, 2-amino-N-{trans-4-[(2-chloro-4-fluorophenyl)carbamoyl]cyclohexyl}pyrazolo[1,5-a]pyrimidine-3-carboxamide]
21 | 60 nM | 51 nM | COCC(C)NC(=O)c1nc[nH]c1C(=O)N[C@H]1CC[C@H](C(=O)Nc2cc(F)c(F)cc2Cl)CC1 (stereo partly drawn) [Example 87, N^5-{trans-4-[(2-chloro-4,5-difluorophenyl)carbamoyl]cyclohexyl}-N^4-(1-methoxypropan-2-yl)-1H-imidazole-4,5-dicarboxamide]
22 | 9.5 nM | 4.9 nM | COCCNC(=O)c1nc[nH]c1C(=O)N[C@H]1CC[C@@]2(CCN(c3cc(C)c(F)cc3Cl)C2=O)CC1 [Example 334, N^5-[(trans)-2-(2-chloro-4-fluoro-5-methylphenyl)-1-oxo-2-azaspiro[4.5]dec-8-yl]-N^4-(2-methoxyethyl)-1H-imidazole-4,5-dicarboxamide]
